Results published in PMC5431190, “Investigation of cationicity and structure of pseudin-2 analogues for enhanced bacterial selectivity and anti-inflammatory activity” (Scientific Reports, 2017).
≈ marks a conversion by molar mass, not a printed value. Read-outs that look alike come from different tables or passages of the source. Residues, ends and D or L forms follow the SMILES beside them.

Assays:
[1] = tested on: Pseudomonas aeruginosa CCARM 2002 (MDRPA 2002); assay type: cell-based; conditions: multidrug-resistant strain; 1% peptone media, 16 h at 37 °C
Description: (§1) Four Gram-negative bacteria species (Escherichia coli KCTC 1682, Acinetobacter baumannii KCTC 2508, Pseudomonas aeruginosa KCTC 1637 and Salmonella typhimurium KCTC 1926) and three Gram-positive bacteria species (Staphylococcus aureus KCTC 1621, Bacillus subtilis KCTC 3028 and Staphylococcus epidermidis KCTC 1917) were procured from the Korean Collection for Type Cultures (KCTC). Multi-drug-resistant Gram-negative bacteria (Salmonella typhimurium CCARM 8003 and 8007, Escherichia coli CCARM 1229 and 1238, Pseudomonas aeruginosa CCARM 2002 and 2095 and Acinetobacter baumannii CCARM 12035 and 12036) were obtained from the Culture Collection of Antibiotic-Resistant Microbes (CCARM). To determine MICs, bacteria were cultured in Luria-Bertani (LB) medium for overnight at 37 °C. An aliquot of the culture was incubated in 1% peptone media at 37 °C until mid-log phase. 100 μl of serial 2-fold diluted peptides were treated in 96 well plates and added to 100 μl of 2 × 10^6 CFU/ml bacterial suspensions in 1% peptone media for 16 h at 37 °C.

[2] = tested on: Gram-positive bacteria (S. aureus, B. subtilis, S. epidermidis); assay type: cell-based
Description: as §1

[3] = tested on: Escherichia coli KCTC 1682; assay type: cell-based
Description: as §1

[4] = tested on: Gram-negative bacteria (E. coli, A. baumannii, P. aeruginosa, S. typhimurium); assay type: cell-based
Description: as §1

[5] = tested on: Salmonella typhimurium KCTC 1926; assay type: cell-based
Description: as §1

[6] = tested on: Staphylococcus aureus KCTC 1621; assay type: cell-based
Description: as §1

[7] = tested on: Salmonella typhimurium CCARM 8003 (MDRST 8003); assay type: cell-based; conditions: multidrug-resistant strain; 1% peptone media, 16 h at 37 °C
Description: as §1

[8] = tested on: Pseudomonas aeruginosa CCARM 2095 (MDRPA 2095); assay type: cell-based; conditions: multidrug-resistant strain; 1% peptone media, 16 h at 37 °C
Description: as §1

[9] = tested on: Acinetobacter baumannii CCARM 12035 (MDRAB 12035); assay type: cell-based; conditions: multidrug-resistant strain; 1% peptone media, 16 h at 37 °C
Description: as §1

[10] = tested on: Acinetobacter baumannii KCTC 2508; assay type: cell-based
Description: as §1

[11] = tested on: Staphylococcus epidermidis KCTC 1917; assay type: cell-based
Description: as §1

[12] = tested on: Pseudomonas aeruginosa KCTC 1637; assay type: cell-based
Description: as §1

[13] = tested on: Salmonella typhimurium CCARM 8007 (MDRST 8007); assay type: cell-based; conditions: multidrug-resistant strain; 1% peptone media, 16 h at 37 °C
Description: as §1

[14] = tested on: Escherichia coli CCARM 1229 (MDREC 1229); assay type: cell-based; conditions: multidrug-resistant strain; 1% peptone media, 16 h at 37 °C
Description: as §1

[15] = tested on: Escherichia coli CCARM 1238 (MDREC 1238); assay type: cell-based; conditions: multidrug-resistant strain; 1% peptone media, 16 h at 37 °C
Description: as §1

[16] = tested on: Bacillus subtilis KCTC 3028; assay type: cell-based
Description: as §1

[17] = tested on: Acinetobacter baumannii CCARM 12036 (MDRAB 12036); assay type: cell-based; conditions: multidrug-resistant strain; 1% peptone media, 16 h at 37 °C
Description: as §1

[18] = tested on: S. aureus 3089(R) (MRSA 3089); assay type: cell-based, Staphylococcus aureus; conditions: multidrug-resistant strain; 1% peptone media, 16 h at 37 °C
[19] = tested on: S. aureus 3126(R) (MRSA 3126); assay type: cell-based, Staphylococcus aureus; conditions: multidrug-resistant strain; 1% peptone media, 16 h at 37 °C
[20] = tested on: S. aureus 3108(R) (MRSA 3108); assay type: cell-based, Staphylococcus aureus; conditions: multidrug-resistant strain; 1% peptone media, 16 h at 37 °C
[21] = tested on: human red blood cells (hRBCs); test: Haemolytic activity; assay type: cell-based
Description: Peptide-induced lysis of human red blood cells (hRBCs) was determined as follows. Fresh hRBCs were washed 2–3 times with phosphate-buffered saline (PBS) by centrifugation for 5 min at 2500 rpm at 4 °C. Peptides in PBS were incubated with 4% (v/v) hRBCs for 1 h at 37 °C. Samples were then centrifuged for 5 min at 1000 × g. The absorbance of the supernatant at 405 nm was used as a measure of haemolysis. As a positive control, 100% haemolysis was obtained by treating hRBCs with 0.1% Triton X-100.

[22] = average over the three Gram-positive standard strains
[23] = standard strain KCTC 1682, 2-fold dilutions, 1% peptone media, 2 × 10^6 CFU/ml suspension, 16 h at 37 °C, three independent experiments in triplicate, SD 14.0%
[24] = average over the four Gram-negative standard strains
[25] = standard strain KCTC 1926, 1% peptone media, 16 h at 37 °C, three independent experiments in triplicate, SD 14.0%
[26] = standard strain KCTC 1621, 1% peptone media, 16 h at 37 °C, three independent experiments in triplicate, SD 14.0%
[27] = standard strain KCTC 2508, 1% peptone media, 16 h at 37 °C, three independent experiments in triplicate, SD 14.0%
[28] = standard strain KCTC 1917, 1% peptone media, 16 h at 37 °C, three independent experiments in triplicate, SD 14.0%
[29] = standard strain KCTC 1637, 1% peptone media, 16 h at 37 °C, three independent experiments in triplicate, SD 14.0%
[30] = standard strain KCTC 3028, 1% peptone media, 16 h at 37 °C, three independent experiments in triplicate, SD 14.0%

| Compound | MIC, MDRPA 2002 [1] [µM] | Average MIC, Gram-positive [2, 22] [µM] | MIC, E. coli [3, 23] [µM] | Average MIC, Gram-negative [4, 24] [µM] | MIC, S. typhimurium [5, 25] [µM] | MIC, S. aureus [6, 26] [µM] | MIC, MDRST 8003 [7] [µM] | MIC, MDRPA 2095 [8] [µM] | MIC, MDRAB 12035 [9] [µM] | MIC, A. baumannii [10, 27] [µM] | MIC, S. epidermidis [11, 28] [µM] | MIC, P. aeruginosa [12, 29] [µM] | MIC, MDRST 8007 [13] [µM] | MIC, MDREC 1229 [14] [µM] | MIC, MDREC 1238 [15] [µM] | MIC, B. subtilis [16, 30] [µM] | MIC, MDRAB 12036 [17] [µM] | MIC, MRSA 3089 [18] [µM] | MIC, MRSA 3126 [19] [µM] | MIC, MRSA 3108 [20] [µM] | also measured |
| --- | --- | --- | --- | --- | --- | --- | --- | --- | --- | --- | --- | --- | --- | --- | --- | --- | --- | --- | --- | --- | --- |
| CC[C@H](C)[C@H](NC(=O)CN)C(=O)NCC(=O)N[C@@H](C)C(=O)N[C@H](C(=O)N[C@@H](CC(C)C)C(=O)N[C@@H](CCCCN)C(=O)N[C@H](C(=O)N[C@@H](CC(C)C)C(=O)N[C@H](C(=O)N[C@H](C(=O)NCC(=O)N[C@@H](CC(C)C)C(=O)N1CCC[C@H]1C(=O)N[C@@H](C)C(=O)N[C@@H](CC(C)C)C(=O)N[C@H](C(=O)N[C@@H](CO)C(=O)N[C@@H](Cc1c[nH]c2ccccc12)C(=O)N[C@H](C(=O)N[C@@H](CCCCN)C(=O)N[C@@H](CCCNC(=N)N)C(=O)N[C@@H](CCCCN)C(=O)N[C@@H](CCCNC(=N)N)C(=O)N[C@@H](CCC(N)=O)C(=O)N[C@@H](CCC(N)=O)C(N)=O)[C@@H](C)CC)[C@@H](C)CC)[C@@H](C)O)[C@@H](C)O)C(C)C)C(C)C [Melittin, reference compound] | 2 (≈ 5.69 µg/mL) | 3.33 | 4 (≈ 11.4 µg/mL) | 5 | 8 (≈ 22.8 µg/mL) | 4 (≈ 11.4 µg/mL) | 8 (≈ 22.8 µg/mL) | 2 (≈ 5.69 µg/mL) | 4 (≈ 11.4 µg/mL) | 4 (≈ 11.4 µg/mL) | 2 (≈ 5.69 µg/mL) | 4 (≈ 11.4 µg/mL) | 8 (≈ 22.8 µg/mL) | 4 (≈ 11.4 µg/mL) | 4 (≈ 11.4 µg/mL) | 4 (≈ 11.4 µg/mL) | 4 (≈ 11.4 µg/mL) | 2 (≈ 5.69 µg/mL) | 2 (≈ 5.69 µg/mL) | 2 (≈ 5.69 µg/mL) |  |
| CC[C@H](C)[C@H](NC(=O)[C@H](C)NC(=O)[C@H](CCCCN)NC(=O)[C@H](Cc1c[nH]cn1)NC(=O)[C@@H](NC(=O)[C@@H]1CCCN1C(=O)[C@H](CCC(N)=O)NC(=O)[C@H](Cc1ccccc1)NC(=O)[C@@H](NC(=O)[C@H](CCCCN)NC(=O)[C@H](CCCCN)NC(=O)[C@H](CC(C)C)NC(=O)[C@H](C)NC(=O)[C@H](CC(N)=O)NC(=O)[C@H](CC(C)C)NC(=O)CN)C(C)C)[C@@H](C)CC)C(=O)N[C@@H](CCCCN)C(=O)N[C@@H](CCCCN)C(=O)N[C@H](C(=O)N[C@@H](CC(N)=O)C(=O)N[C@@H](CC(N)=O)C(=O)N[C@@H](Cc1c[nH]cn1)C(=O)N[C@H](C(=O)N[C@@H](CCC(N)=O)C(=O)O)C(C)C)[C@@H](C)CC [Ps-K14-K18-P] (H-GLNALKKVFQPIHKAIKKINNHVQ-OH) | 16 (≈ 43.8 µg/mL) | 42.67 | 4 (≈ 11 µg/mL) | 7 | 8 (≈ 21.9 µg/mL) | 32 (≈ 87.7 µg/mL) | 16 (≈ 43.8 µg/mL) | 16 (≈ 43.8 µg/mL) | 16 (≈ 43.8 µg/mL) | 8 (≈ 21.9 µg/mL) | 64 (≈ 175 µg/mL) | 8 (≈ 21.9 µg/mL) | 16 (≈ 43.8 µg/mL) | 8 (≈ 21.9 µg/mL) | 8 (≈ 21.9 µg/mL) | 32 (≈ 87.7 µg/mL) | 8 (≈ 21.9 µg/mL) | 32 (≈ 87.7 µg/mL) | 64 (≈ 175 µg/mL) | 32 (≈ 87.7 µg/mL) | haemolysis at 400 μM ([21]; 400 μM peptide, 4% hRBCs, PBS, 1 h at 37 °C, 100% = 0.1% Triton X-100): 0.3%; MHC (minimal peptide concentration that produces haemolysis) ([21]; 4% (v/v) hRBCs in PBS, 1 h at 37 °C, absorbance 405 nm, printed in both Gram-negative and Gram-positive sections): 400 µM |
| CC[C@H](C)[C@H](NC(=O)CNC(=O)[C@H](CCC(N)=O)NC(=O)[C@H](Cc1ccccc1)NC(=O)[C@@H](NC(=O)[C@H](CCCCN)NC(=O)[C@H](CCCCN)NC(=O)[C@H](CC(C)C)NC(=O)[C@H](C)NC(=O)[C@H](CC(N)=O)NC(=O)[C@H](CC(C)C)NC(=O)CN)C(C)C)C(=O)N[C@@H](Cc1c[nH]cn1)C(=O)N[C@@H](CCCCN)C(=O)N[C@@H](C)C(=O)N[C@H](C(=O)N[C@@H](CCCCN)C(=O)N[C@@H](CCCCN)C(=O)N[C@H](C(=O)N[C@@H](CC(N)=O)C(=O)N[C@@H](CC(N)=O)C(=O)N[C@@H](Cc1c[nH]cn1)C(=O)N[C@H](C(=O)N[C@@H](CCC(N)=O)C(=O)O)C(C)C)[C@@H](C)CC)[C@@H](C)CC [Ps-K14-K18] (H-GLNALKKVFQGIHKAIKKINNHVQ-OH) | 2 (≈ 5.4 µg/mL) |  |  |  |  |  | 4 (≈ 10.8 µg/mL) | 4 (≈ 10.8 µg/mL) | 2 (≈ 5.4 µg/mL) |  |  |  | 4 (≈ 10.8 µg/mL) | 2 (≈ 5.4 µg/mL) | 2 (≈ 5.4 µg/mL) |  | 2 (≈ 5.4 µg/mL) | 8 (≈ 21.6 µg/mL) | 4 (≈ 10.8 µg/mL) | 4 (≈ 10.8 µg/mL) | Average MIC, Gram-positive ([2]; 16 h): 10.67 µM; MIC, E. coli ([3]; KCTC 1682, 16 h): 1 µM (≈ 2.7 µg/mL); Average MIC, Gram-negative ([4]; 16 h): 1.75 µM; MIC, S. typhimurium ([5]; KCTC 1926, 16 h): 2 µM (≈ 5.4 µg/mL); MIC, S. aureus ([6]; KCTC 1621, 16 h): 8 µM (≈ 21.6 µg/mL); MIC, A. baumannii ([10]; KCTC 2508, 16 h): 2 µM (≈ 5.4 µg/mL); MIC, S. epidermidis ([11]; KCTC 1917, 16 h): 16 µM (≈ 43.2 µg/mL); MIC, P. aeruginosa ([12]; KCTC 1637, 16 h): 2 µM (≈ 5.4 µg/mL); MIC, B. subtilis ([16]; KCTC 3028, 16 h): 8 µM (≈ 21.6 µg/mL); MHC (minimal peptide concentration that produces haemolysis) ([21]; red cells of human, 1 h): 100 µM; haemolysis at 100 μM ([21]; red cells of human, 1 h, 100): 1.1% |
